# Test system: murine E^d MHC class II allele
# Test: simultaneous assay, E^d allele (A20 APC, G28.C9 T hybridoma, HEL106-116; HT-2 [3H]TdR readout)
# Assay type: cell-based
# Details: simultaneous assay, Table 14, versus AE114 / AE301; E^d and E^k
# Protocol: Examples 1-4 (Tables 1-18) will be briefly considered in order to establish the concept of tolerance discussed above. These examples describe experimental results observed in the so-called “simultaneous” assay. In the simultaneous assay four principle components are cultured together for a 24 hour period. […] The degree of stimulation of that second, indicator cell by the interleukins which had been released from the activated T cell hybridoma in the primary culture is measured by quantitating tritiated thymidine deoxyribose {[^3H]TdR} uptake into the DNA of the HT-2 indicator cells of that second culture.
# In the “simultaneous assay” the four components of the assay are cultured together for a 24 h period. […] The degree of stimulation of that second, indicator cell by the interleukins which had been released from the activated T cell hybridoma in the primary culture is measured by quantitating tritiated thymidine deoxyribose {[^3H]TdR} uptake into the DNA of the HT-2 indicator cells of that second culture. […]
substance,measurement,value
Ac-LR (mL) KLPK-NH2 [AE302],reduction in activity on substitution of 3-methionine by N-methyl leucine,50-70%

# From patent US6835382B2, “Ii peptide therapeutics to enhance antigen presentation” (University of Massachusetts, priority 1996, dated 2004)
